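A five-concentration, 48-hour dose response in 96-well plates underlies each endpoint, interpolated linearly between surrounding concentrations. GI50 = concentration required for 50% inhibition of growth. TGI is the concentration that stops growth completely.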
Columns and labels:
Assay in all cases: growth of human tumour cells (NCI), 48 h
[1] = tested on: OVCAR-3 ovarian
[2] = tested on: MDA-MB-231 breast
[3] = tested on: SNB-19 CNS
[4] = tested on: HS 578T breast
[5] = tested on: NCI-H23 lung
[6] = tested on: TK-10 renal
[7] = tested on: NCI-H226 lung
[8] = tested on: RPMI-8226 leukemia
[9] = tested on: CCRF-CEM leukemia
[10] = tested on: KM12 colon

Compound	GI50 [1] [µM]	TGI [1] [µM]	GI50 [2] [µM]	TGI [2] [µM]	GI50 [3] [µM]	TGI [3] [µM]	GI50 [4] [µM]	TGI [4] [µM]	GI50 [5] [µM]	TGI [5] [µM]	GI50 [6] [µM]	TGI [6] [µM]	GI50 [7] [µM]	TGI [7] [µM]	GI50 [8] [µM]	TGI [8] [µM]	GI50 [9] [µM]	TGI [9] [µM]	GI50 [10] [µM]	TGI [10] [µM]
O=C1c2ccccc2C(=Cc2ccccc2)c2ccccc21	2.56	9.11	2.78	35.9	3.61	16.9	3.9	> 100	2.59	14.1	3.03	10.1	4.99	20.4	3	14.6	2.77	29	1.8	9.81
C/C(=C\C1=C(Cl)C(=O)c2ccccc2C1=O)C(=O)O	19.4	34.2	18.6	33.8	17.7	31.7	30.3	69.3	21.5	45.7	23.3	38.1	19.6	37.5	20.2	46.5	21.8	46.2	18.1	33.7
Oc1ccc(O)c(-c2cc(-c3ccccc3)nn2-c2ccccc2)c1	22.8	> 100	30.3	> 100	23.9	> 100	19.6	68	14.3	32.5	14	71	18.7	51.4	–	–	–	–	19.6	> 100
C=C(C)C1CC2(C)C(C)CC(OC(=O)/C(C)=C\C)CC2C(OC(=O)/C(C)=C\C)C1O (centres undefined)	–	–	–	> 100	–	> 100	–	> 100	–	> 100	–	> 100	–	> 100	–	–	–	45.8	–	> 100
Cn1cc(C2=C(c3cccnc3)C(=O)NC2=O)c2ccccc21	15	> 25	> 23.8	> 25	> 25	> 25	8.14	> 25	> 25	> 25	> 25	> 25	8.15	> 19.2	> 25	> 25	10.5	> 25	> 20.6	> 25
Cc1cc(C2=NNC(=O)Cc3cc4c(cc32)OCCO4)cc(C)c1N	0.892	5.6	6.25	> 100	4.31	> 100	3.05	> 100	2.89	> 100	8.96	> 100	8.9	> 100	–	–	–	–	0.818	> 100
O=S(=O)(O)c1ccc(-c2nnc(-c3ccccn3)nc2-c2ccc(S(=O)(=O)O)o2)o1	–	> 100	–	> 100	–	> 100	–	> 100	–	> 100	–	–	–	> 100	–	> 100	–	–	–	> 100
COc1cnc2c(c1)C(=O)c1c-2n(CCCN2CCC(O)CC2)c(=O)c2cc(F)ccc12	0.254	1.18	0.485	2.1	0.175	1.32	1.67	52.4	0.292	1.32	0.323	1.59	0.135	0.307	0.109	0.63	0.0797	1.95	–	–
CC(=O)OCC(=O)O[C@@H]1C[C@]2(C(C)C)O[C@@]1(C)[C@@H]1CC[C@@H](C)[C@H]1[C@@H]2OC(=O)/C=C/c1ccccc1	32.8	> 100	14	33.4	30.2	> 100	< 0.0116	0.0363	23.7	99.1	15.5	39.7	10.6	37.1	18.8	> 100	21.3	> 100	26.7	> 100
O=P(NC12CC3CC(CC(C3)C1)C2)(N1CC1)N1CC1	–	> 100	–	> 100	–	> 100	–	> 100	–	> 63.8	–	> 100	–	> 94.8	–	> 100	–	> 100	–	> 100
Cc1cccc(C(=O)/C=C/SC(=NC#N)SCc2ccccc2)c1	16.7	89.7	20	41.5	36.1	> 100	27.9	94.8	20.9	47	13.1	32	–	–	4.06	> 100	3.23	> 100	31.6	> 100
